The results in this text go back to patent US20250361511A1, “NANOPARTICLE COMPOSITIONS CONTAINING SIRP-alpha siRNA FOR TREATMENT OF CANCER” (The Texas A&M University System, priority 2024, published 2025).

The test system of experiment [1] is OVCAR3/macrophage heterospheroids. The experiment can be described thus: Response to carboplatin chemotherapy, MTS viability, heterospheroids. It is filed as cell-based. The procedure: (§1) Spheroid formation on 384-well hanging drop arrays. OvCa monospheroids or OvCa/macrophage heterospheroids were formed on a 384-well hanging drop array following well-established protocols. OvCa monospheroids were initiated with 100 cells in a 20 μL drop of growth medium. To create OvCa/macrophage heterospheroids, the hanging drop platform was first leveraged to differentiate THP-1 monocytes to M0 macrophages by phorbol ester exposure20. Following a 3-day differentiation, macrophages were harvested and mixed with OvCa cells (50:50) to create heterospheroids. Monospheroid or heterospheroid formation was visually confirmed using phase contrast microscopy at day 4.
(§2) Response to chemotherapy. Carboplatin (MedChemExpress, Monmouth Junction, NJ) was dissolved by sonication in sterile PBS at a stock concentration of 5 mg/mL. OVCAR3 monospheroids or OVCAR3/macrophage heterospheroids formed over 4 days were treated with 0-500 μM carboplatin and incubated for 2 days/48 hours. An MTS assay was then used to determine the percent cell viability in carboplatin-treated spheroids compared to untreated controls. IC50 values were calculated with the GraphPad Prism normalized log (inhibitor) variable slope nonlinear fit function.
(§3) siSIRPα LNP immune checkpoint treatment. Mono-or hetero-spheroids were treated with 25 nM siSIRPα LNP on day 2 in hanging drop culture. LNP ability to reduce both macrophage SIRPα expression and OvCa metastatic behavior were evaluated over 4 more days.

In another experiment the test system is OVCAR3 monospheroids. The experiment in a line: Response to carboplatin chemotherapy, MTS viability, monospheroids. Format: cell-based. The procedure:
as §1, §2, §3

On to `N.N.O=C([O-])C1(C(=O)[O-])CCC1.[Pt+2]` [carboplatin], for which the IC50 (commonly the concentration that gives 50% inhibition) in experiment [1] (OVCAR3/THP1 OvCa/MP hetero-spheroids, no LNP, FIG. 1B/6B) is 536 µM; in experiment [1] (OvCa/MP hetero-spheroids treated with siSIRPα-LNP, FIG. 6B) it was 213 µM; in experiment [1] (heterospheroids with 25 nM siSIRPα LNP treatment, FIG. 14B) it was 321 ± 54.6 µM; in experiment [1] (heterospheroids with negative control (scramble) siRNA LNP, FIG. 15C), 405 µM; in experiment [1] (heterospheroids, no treatment, 0-500 μM for 48 hours, MTS, FIG. 10C/14B/15C) it was 368 µM; in the experiment on OVCAR3 monospheroids (OVCAR3 monospheroids, carboplatin 0-500 μM, FIG. 1B), 114 µM. The IC50 was found to be 272 µM with OVCAR3 monospheroids (monospheroids after siSIRPα LNP, FIG. 15A) and 218 µM in the experiment on OVCAR3 monospheroids (monospheroids, control, 0-500 μM for 48 hours, MTS, FIG. 10C/15A).
